Patent publication US5935954A, “Compounds with improved multi-drug resistance activity” (Vertex Pharmaceuticals Incorporated, priority 1997, dated 1999)
pKi: −log10 of the molar value.

Each molecule was assayed against FKBP12 (Homo sapiens, UniProt P62942) (assay: FKBP12 binding assay (inhibition of rotomase activity)). Conditions: apparent Ki.
Assay type: biochemical
Description: Preferably, the assay measures inhibition of FKBP12 rotomase activity. Such an assay has also been described by M. W. Harding et al., supra and by J. J. Siekierka et al., supra. In this assay the isomerization of an artificial substrate--N-succinyl-Ala-Ala-Pro-Phe-p-nitroanilide--is followed spectrophotometrically. The assay includes the cis form of the substrate, FKBP12, the inhibitor and chymotrypsin. Chymotrypsin is able to cleave p-nitroanilide from the trans form of the substrate, but not the cis form. Release of p-nitroanilide is measured.
The inhibition of FKBP rotomase activity by the preferred FKBP12 binding compounds present in the compositions of this invention was assayed. In this assay various quantities of FKBP12 binding compound (0nM-10 μM) were added to cis-N-succinyl-Ala-Ala-Pro-Phe-p-nitroanilide in the presence of FKBP12 and chymotrypsin. FKBP12 converts the cis form of the substrate to the trans form. This allows chymotrypsin to cleave p-nitroanilide from the substrate. Release of p-nitroanilide was measured spectrophotometrically. This assay allowed me to measure the change in the first order rate constant of the rotomase activity as a function of FKBP12 binding compound concentration and yielded an estimate of apparent Ki.

Sequence of FKBP12 (P62942 whole entry, species assumed): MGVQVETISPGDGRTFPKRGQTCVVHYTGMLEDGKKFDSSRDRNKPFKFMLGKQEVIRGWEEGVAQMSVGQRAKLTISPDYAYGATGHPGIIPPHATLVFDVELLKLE

Row | Compound | pKi
1 | CCOc1ccc(OCC)c(-c2cncc([C@@H](CCCc3ccccc3)OC(=O)[C@@H]3CCCCN3C(=O)C(=O)c3cc(OC)c(OC)c(OC)c3)c2)c1 [Compound 10] | 7.80
2 | CCOc1ccc(OCC)c(-c2cncc([C@@H](CCCc3ccccc3)OC(=O)[C@@H]3CCCCN3C(=O)C(=O)c3ccc(OC)c(OC)c3)c2)c1 [Compound 11] | 8.15
3 | CCOc1ccc(OCC)c(-c2cncc([C@H](CCCc3ccccc3)OC(=O)[C@@H]3CCCCN3C(=O)C(=O)c3ccc(OC)c(OC)c3)c2)c1 [Compound 12] | 7.52
4 | CCOc1ccccc1-c1cncc([C@@H](CCCc2ccccc2)OC(=O)[C@@H]2CCCCN2C(=O)C(=O)c2ccc(OC)c(OC)c2)c1 [Compound 20] | 8.24
5 | CCOc1ccccc1-c1cncc([C@H](CCCc2ccccc2)OC(=O)[C@@H]2CCCCN2C(=O)C(=O)c2ccc(OC)c(OC)c2)c1 [Compound 21] | 7.05
6 | CCCOc1ccc(OCCC)c(-c2cncc([C@H](CCCc3ccccc3)OC(=O)[C@@H]3CCCCN3C(=O)C(=O)c3cc(OC)c(OC)c(OC)c3)c2)c1 [Compound 23] | 5.60
7 | COc1cc(C(=O)C(=O)N2CCCC[C@H]2C(=O)O[C@@H](CCCc2ccccc2)c2cncc(-c3c(OC)cccc3OC)c2)cc(OC)c1OC [Compound 25] | 7.52
8 | CCC/C=C(\c1cccnc1)c1cccc([C@H](CCN2CCOCC2)OC(=O)[C@@H]2CCCCN2C(=O)C(=O)c2cc(OC)c(OC)c(OC)c2)c1 [Compound 31] | 6.89
9 | COc1cc(C(=O)C(=O)N2CCCC[C@H]2C(=O)O[C@@H](/C(C)=C/[C@H]2CC[C@H](O)CC2)c2cncc(-c3c(OC)cccc3OC)c2)cc(OC)c1OC [Compound 33] | 7.92
10 | CCC/C=C(/c1ccc(C)cc1)c1cncc([C@@H](OC(=O)[C@@H]2CCCCN2C(=O)C(=O)c2ccc(F)cc2)/C(C)=C/[C@H]2CC[C@H](O)CC2)c1 [Compound 38] | 7.15
11 | CCC/C=C(/c1ccc(C)cc1)c1cncc([C@H](OC(=O)[C@@H]2CCCCN2C(=O)C(=O)c2ccc(F)cc2)/C(C)=C/[C@H]2CC[C@H](O)CC2)c1 [Compound 39] | 7.35
12 | COCc1cccc(COC)c1-c1cncc([C@H](OC(=O)[C@@H]2CCCCN2C(=O)C(=O)c2ccco2)/C(C)=C/[C@H]2CC[C@H](O)CC2)c1 [Compound 41] | 7.17
13 | CCC/C=C(\c1cncc([C@@H](OC(=O)[C@@H]2CCCCN2C(=O)C(=O)c2ccc(F)cc2)/C(C)=C/[C@H]2CC[C@H](O)CC2)c1)C1CCCCC1 [Compound 42] | 5.68
14 | CCOCc1cc2ccccc2n1-c1cccc([C@H](OC(=O)[C@@H]2CCCCN2C(=O)C(=O)c2ccco2)/C(C)=C/[C@H]2CC[C@H](O)CC2)c1 [Compound 44] | 7.28
15 | CCC/C=C(\c1cncc([C@@H](OC(=O)[C@@H]2CCCCN2C(=O)C(=O)c2ccco2)/C(C)=C/[C@H]2CC[C@H](O)CC2)c1)C1CCCCC1 [Compound 45] | 6.64
16 | CCC/C=C(\c1cncc([C@H](OC(=O)[C@@H]2CCCCN2C(=O)C(=O)c2ccco2)/C(C)=C/[C@H]2CC[C@H](O)CC2)c1)C1CCCCC1 [Compound 46] | 7.00
17 | COC/C=C(\c1cncc([C@H](OC(=O)[C@@H]2CCCCN2C(=O)C(=O)c2ccco2)/C(C)=C/[C@H]2CC[C@H](O)CC2)c1)C1CCCCC1 [Compound 47] | 7.08
18 | COC/C=C(\c1cncc([C@@H](OC(=O)[C@@H]2CCCCN2C(=O)C(=O)c2ccco2)/C(C)=C/[C@H]2CC[C@H](O)CC2)c1)C1CCCCC1 [Compound 48] | 6.92
19 | CCOCc1cccc(COCC)c1-c1csc(C(CCN2CCOCC2)OC(=O)[C@@H]2CCCCN2C(=O)C(=O)C(C)(C)COC)c1 (stereo partly drawn) [Compound 49] | < 5.00
20 | CCOCc1cccc(COCC)c1-c1csc(C(CCN2CCOCC2)OC(=O)[C@@H]2CCCCN2C(=O)C(=O)C(C)(C)COC)c1 (stereo partly drawn) [Compound 50] | < 5.00

Next, values leading:

Row | pKi | Compound
21 | 6.52 | COc1cc(C(=O)C(=O)N2CCCC[C@H]2C(=O)OC(CCCc2ccccc2)c2cccc(C(=CCCc3ccccc3)c3cccnc3)c2)cc(OC)c1OC (stereo partly drawn) [Compound 3]
22 | < 5.30 | CCOc1ccc(OCC)c(-c2cccc(C(CCCc3ccccc3)OC(=O)[C@@H]3CCCCN3C(=O)C(=O)c3cc(OC)c(OC)c(OC)c3)c2)c1 (stereo partly drawn) [Compound 4]
23 | 5.40 | COc1cc(C(=O)C(=O)N2CCCC[C@H]2C(=O)O[C@@H](CCCc2ccccc2)c2cccc(/C(=C\CCc3ccccc3)c3cccnc3)c2)cc(OC)c1OC [Compound 5]
24 | 7.62 | COc1cc(C(=O)C(=O)N2CCCC[C@H]2C(=O)O[C@H](CCCc2ccccc2)c2cccc(/C(=C\CCc3ccccc3)c3cccnc3)c2)cc(OC)c1OC [Compound 6]
25 | < 5.00 | CCOc1ccc(OCC)c(-c2cccc([C@H](CCCc3ccccc3)OC(=O)[C@@H]3CCCCN3C(=O)C(=O)c3cc(OC)c(OC)c(OC)c3)c2)c1 [Compound 7]
26 | 6.00 | CCOc1ccc(OCC)c(-c2cccc([C@@H](CCCc3ccccc3)OC(=O)[C@@H]3CCCCN3C(=O)C(=O)c3cc(OC)c(OC)c(OC)c3)c2)c1 [Compound 8]
27 | 8.15 | COc1cc(C(=O)C(=O)N2CCCC[C@H]2C(=O)O[C@H](CCCc2ccccc2)c2cccc(/C(=C\CCc3ccccc3)c3ccc[n+]([O-])c3)c2)cc(OC)c1OC [Compound 9]
28 | 8.30 | COc1ccc(C(=O)C(=O)N2CCCC[C@H]2C(=O)O[C@H](CCCc2ccccc2)c2cncc(-c3ccccc3OC)c2)cc1OC [Compound 13]
29 | 7.92 | COc1ccc(C(=O)C(=O)N2CCCC[C@H]2C(=O)O[C@@H](CCCc2ccccc2)c2cncc(-c3ccccc3OC)c2)cc1OC [Compound 14]
30 | 9.00 | COc1ccccc1-c1cncc([C@@H](CCCc2ccccc2)OC(=O)[C@@H]2CCCCN2C(=O)C(=O)c2cc(OC)c(OC)c(OC)c2)c1 [Compound 15]
31 | 5.48 | CCC/C=C(/c1cccnc1)c1cccc([C@H](CCCc2ccccc2)OC(=O)[C@@H]2CCCCN2C(=O)C(=O)c2cc(OC)c(OC)c(OC)c2)c1 [Compound 16]
32 | 9.22 | CCC/C=C(/c1cccnc1)c1cccc([C@@H](CCCc2ccccc2)OC(=O)[C@@H]2CCCCN2C(=O)C(=O)c2cc(OC)c(OC)c(OC)c2)c1 [Compound 17]
33 | 9.40 | CCOc1ccccc1-c1cncc([C@@H](CCCc2ccccc2)OC(=O)[C@@H]2CCCCN2C(=O)C(=O)c2cc(OC)c(OC)c(OC)c2)c1 [Compound 18]
34 | 7.57 | CCOc1ccccc1-c1cncc([C@H](CCCc2ccccc2)OC(=O)[C@@H]2CCCCN2C(=O)C(=O)c2cc(OC)c(OC)c(OC)c2)c1 [Compound 19]
35 | 9.00 | CC/C=C(/c1cccnc1)c1cccc([C@@H](CCCc2ccccc2)OC(=O)[C@@H]2CCCCN2C(=O)C(=O)c2cc(OC)c(OC)c(OC)c2)c1 [Compound 29]
36 | 8.22 | CCCC/C=C(/c1cccnc1)c1cccc([C@@H](CCN2CCOCC2)OC(=O)[C@@H]2CCCCN2C(=O)C(=O)c2cc(OC)c(OC)c(OC)c2)c1 [Compound 34]
37 | 6.42 | CCCC/C=C(/c1cccnc1)c1cccc([C@H](CCN2CCOCC2)OC(=O)[C@@H]2CCCCN2C(=O)C(=O)c2cc(OC)c(OC)c(OC)c2)c1 [Compound 35]
38 | < 7.52 | CCCC/C=C(/c1cccnc1)c1cccc([C@H](CCCc2ccccc2)OC(=O)[C@@H]2CCCCN2C(=O)C(=O)c2cc(OC)c(OC)c(OC)c2)c1 [Compound 36]
39 | > 9.00 | CCCC/C=C(/c1cccnc1)c1cccc([C@@H](CCCc2ccccc2)OC(=O)[C@@H]2CCCCN2C(=O)C(=O)c2cc(OC)c(OC)c(OC)c2)c1 [Compound 37]
